Entries after “also recorded” stand apart in the source; their conditions may differ.
Experiments:
Format in all cases: cell-based, human
CRYBA = assay: Vitamin C pretreatment, OS-induced CRYBA transcription in RPE cells; conditions: for Inhibition of OS-induced CRYBA transcription: 0.0001-0.2 mM pretreatment
Method: (§1) RNA was isolated from the cells using a no-rinse method after 1 hour or 4 hours of OS, and compared to no-OS controls. Gene-specific expression was quantified by real-time PCR on an ABI 7700 System. […] Experiments were carried out as described above. Briefly, ARPE19 cells were grown to confluence. […] Following RNA extraction and reverse transcription, real-time PCR was used to assess levels of gene transcripts, as described above. […] The data are normalized to 0 at time 0 in order to minimize the mild variability in starting values for the Ct seen within each experiment. […] OS strongly induces gene expression in our gene panel, and the number of transcripts (amount of induction) is proportional to the level of OS. Therefore, protective effects of an antioxidant such as Vitamin C would be expected to reduce the level of transcripts. A protective effect is reflected in an inverse dose dependent (DD) relationship between the level of antioxidant agent (Vitamin C) and the level of transcripts. Higher pretreatment levels with the antioxidant should lead to a lower level of transcripts after OS (a lower change in Ct). An extremely low dose of Vitamin C (0.0001 mM) was chosen in these studies as a homeopathic dose that is not expected to be protective and should be similar to the positive control. This control was added to ensure that all cultures were treated in the same way, as we have determined that even minimal manipulations can have significant effects upon expression of these genes.

cFos = assay: Vitamin C pretreatment, OS-induced cFos transcription in RPE cells
Method: as §1

FosB = assay: Vitamin C pretreatment, OS-induced FosB transcription in RPE cells; conditions: for Inhibition of OS-induced FosB transcription: 0.0001-0.2 mM pretreatment
Method: as §1

HO-1 = assay: Vitamin C pretreatment, OS-induced HO-1 transcription in RPE cells; conditions: 500 μM H2O2, 1 hour and 4 hours after OS
Method: RNA was isolated from the cells using a no-rinse method after 1 hour or 4 hours of OS, and compared to no-OS controls. Gene-specific expression was quantified by real-time PCR on an ABI 7700 System. […] Experiments were carried out as described above. Briefly, ARPE19 cells were grown to confluence. […] Following RNA extraction and reverse transcription, real-time PCR was used to assess levels of gene transcripts, as described above. […] The data are normalized to 0 at time 0 in order to minimize the mild variability in starting values for the Ct seen within each experiment.

ATF3 = assay: Vitamin C pretreatment, OS-induced ATF3 transcription in RPE cells
Method: as §1, with “An extremely low dose of Vitamin C (0.0001 mM) was chosen in these studies as a homeopathic dose that is not expected to be protective and should be similar to the positive control.” left out

O=C1O[C@H]([C@@H](O)CO)C(O)=C1O [Vitamin C, L-ascorbic acid]
Inhibition of OS-induced CRYBA transcription (CRYBA; 500 μM H2O2, 1 hour): DD response is evident
Inhibition of OS-induced CRYBA transcription (CRYBA; 500 μM H2O2, 4 hours): DD response is more evident
Activation of CRYBA transcription by OS following pretreatment (CRYBA; summary, 500 μM H2O2): dose-dependent reduction
Inhibition of OS-induced cFos transcription (cFos; 0.0001-0.2 mM pretreatment, 500 μM H2O2, 1 hour): modest threshold response
Inhibition of OS-induced cFos transcription (cFos; 0.2 mM dose, 500 μM H2O2, 1 hour): strong dose-dependence
Inhibition of OS-induced cFos transcription (cFos; 500 μM H2O2, 4 hours): threshold response for the lower levels of Vitamin C is still seen
Activation of c-Fos transcription by OS following pretreatment (cFos; summary, 500 μM H2O2): dose-dependent reduction
Inhibition of OS-induced FosB transcription (FosB; 500 μM H2O2, 1 hour): modest dose response
Inhibition of OS-induced FosB transcription (FosB; 500 μM H2O2, 4 hours): the effect is quite clear
Activation of FosB transcription by OS following pretreatment (FosB; summary, 500 μM H2O2): dose-dependent reduction
Response of HO-1 transcription after OS to pretreatment (HO-1): does not demonstrate any response; also recorded: does not appear to be reduced
Response of OS-induced ATF3 transcription to pretreatment (ATF3; 0.0001-0.2 mM pretreatment, 500 μM H2O2): we do not see a response; also recorded: does not appear to be reduced; also recorded: does not inhibit
Response of OS-induced ATF3 transcription to pretreatment (ATF3; 500 μM H2O2, 4 hours): slight threshold response may be present

— patent US20080312128A1, “Cellular Biomarker Antioxidant Assay and Uses Thereof” (priority 2005, published 2008)
